A short description of series [1]: Plasma protein binding (equilibrium dialysis), rat plasma. The format is in vitro ADME. Conditions: 1 μg/mL in plasma, dialysis vs phosphate buffer pH 7.4 overnight at 37° C., read-out: Plasma Protein Binding % Bound Rat (converted). As to the method: Nitrone compounds of this invention were individually dissolved in DMSO to make a stock solution of 1 mg/mL. The compound was spiked into plasma to achieve a final concentration of 1 μg/mL. Spiked plasma and phosphate buffer (0.1M, pH 7.4), 200 μl each, were added to the opposite sides of the membrane in a 96-well equilibrium dialyzer. The dialyzer plate was then covered and equilibrated overnight at 37° C. on an orbital shaker. Aliquots were taken from the plasma and the buffer compartments and prepared by adding blank plasma to samples from the buffer compartments and drug-free phosphate buffer to samples from the plasma compartments to eliminate the matrix effects. The samples were extracted using protein precipitation procedure by adding CH3CN. The samples were analyzed using a LC/MS/MS method. The percentage of free and bound nitrone compound were calculated according to the following formula:
%Free=[Free Drug/Total Drug]*100=[(Peak Area)buffer/(Peak Area)serum]*100%Bound=100%Free
(In general: In equilibrium dialysis free small molecules cross a membrane that holds back macromolecules.)

Series [2] in a line: Pharmacokinetic evaluation following intravenous and oral administration in rats. The format is in vivo. Conditions: male, Sprague-Dawley; for Cmax / Tmax / bioavailability: 5 mg/kg; for Cmax: rat plasma; for Cmax / Tmax: oral gavage, 2 mg/mL at 2.5 mL/kg; for clearance / Vd / Tmax / bioavailability / half-life: plasma, rat; for clearance / Vd / half-life: 1 mg/kg; for clearance / Vd: intravenous administration, 1 mg/mL at 1.0 mL/kg; for clearance: read-out: CI (clearance) (converted); for Vd: read-out: Vd (volume of distribution); for bioavailability: po 2 mg/mL at 2.5 mL/kg vs iv 1 mg/mL at 1.0 mL/kg, dose-normalized, read-out: F (%) oral bioavailability; for half-life: intravenous, read-out: T1/2 elimination half life (converted). Put shortly: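 Male Sprague-Dawley rats, fasted, dosed iv (1 mg/mL formulation, 1.0 mL/kg, jugular or tail vein) or by oral gavage (2 mg/mL suspension, 2.5 mL/kg). Plasma sampled from 2 min to 480 min, some to 24 h, and quantified by LC-MS/MS (MRM). Parameters from noncompartmental analysis.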

As usually defined, the Cmax is the maximum level reached in the sampled fluid or tissue. As usually defined, the Tmax is the time at which the peak concentration occurs. The term bioavailability denotes the share of a dose that reaches the circulation, judged against a reference dose that is usually intravenous. As to `CC(C)(C)/[N+]([O-])=C/c1ccc(S(N)(=O)=O)cc1` [Compound 20, N-(tert-Butyl)-C-[4-(sulfamoyl)phenyl]nitrone], the fraction unbound at 1 μg/mL in series [1] is 0.976. Also, in series [2], the Cmax is 796 ng/mL, the clearance is 12.8 mL/min/kg, the Vd turned out to be 4.08 L/kg and the Tmax was found to be 22.2 min. Also, in series [2], the bioavailability worked out at 55.4% and the half-life is 220 min.
Consider `CC(C)(C)/[N+]([O-])=C/c1ccc(S(=O)(=O)N2CCOCC2)cc1` [Compound 23, N-(tert-Butyl)-C-[4-(morpholine-4-sulfonyl)phenyl]nitrone], for which the fraction unbound at 1 μg/mL in series [1] was 0.782. Also, in series [2], the Cmax came out at 1120 ng/mL, the clearance was 28 mL/min/kg, the Vd was 3.78 L/kg and the Tmax is 25.2 min. Further, in series [2], the bioavailability worked out at 65.3% and the half-life was 94.8 min.
Turning to `CC(C)(C)/[N+]([O-])=C/c1ccc(S(=O)(=O)Nc2cccnc2)cc1` [Compound 26, N-(tert-Butyl)-C-[4-(pyridin-3-ylsulfamoyl)phenyl]nitrone], the fraction unbound at 1 μg/mL in series [1] is 0.01. Moreover, in series [2], the Cmax is 27300 ng/mL, the clearance is 0.167 mL/min/kg, the Vd turned out to be 0.09 L/kg and the Tmax is 25.2 min. Further, in series [2], the bioavailability was 43.4% and the half-life was 262 min.
With `CC(C)(C)/[N+]([O-])=C/c1ccc(S(C)(=O)=O)cc1` [Compound 62, N-tert-Butyl-C-[4-(methanesulfonyl)phenyl]nitrone], the fraction unbound at 1 μg/mL in series [1] was 0.999. In addition, in series [2], the Cmax came out at 4630 ng/mL, the clearance was 1 mL/min/kg, the Vd is 0.53 L/kg and the Tmax was found to be 24.6 min. In series [2], the bioavailability came to 63.4% and the half-life is 349 min.
`CC(C)(C)/[N+]([O-])=C/c1ccc(S(C)(=O)=O)cc1S(C)(=O)=O` [Compound 63, N-tert-Butyl-C-(2,4-bis-methanesulfonylphenyl)nitrone]: the fraction unbound at 1 μg/mL in series [1] is 0.741. In series [2], the Cmax worked out at 4130 ng/mL, the clearance is 3.17 mL/min/kg, the Vd stood at 0.45 L/kg and the Tmax turned out to be 45 min. In series [2], the bioavailability worked out at 95.9% and the half-life is 99.6 min.
`CCS(=O)(=O)c1ccc(/C=[N+](\[O-])C(C)(C)C)c(S(=O)(=O)CC)c1` [Compound 64, N-tert-Butyl-C-(2,4-bis-ethanesulfonylphenyl)nitrone]: the fraction unbound at 1 μg/mL in series [1] was 0.811. For the same molecule, in series [2], the Cmax came out at 2490 ng/mL, the clearance is 13.8 mL/min/kg, the Vd amounted to 0.67 L/kg and the Tmax stood at 39.6 min. Moreover, in series [2], the bioavailability was found to be 91.3% and the half-life was 33 min.
For the molecule `CC(C)(C)/[N+]([O-])=C/c1ccccc1S(C)(=O)=O` [Compound 66, N-tert-Butyl-C-(2-methanesulfonylphenyl)nitrone], the fraction unbound at 1 μg/mL in series [1] is 0.898. Besides, in series [2], the highest concentration (Cmax) stood at 4730 ng/mL, the clearance is 3 mL/min/kg, the Vd came out at 0.63 L/kg and the Tmax worked out at 60 min. In addition, in series [2], the bioavailability stood at 70.3% and the half-life was 143 min.
